Marks after values point to notes of the source that are not given here.

For the assay, the system named is co-cultures of HaCaT keratinocytes and melanocytes (neonatal primary human epidermal melanocytes). As to the kind of experiment: Melanin content assay (% cellular melanin vs control) in keratinocyte/melanocyte co-cultures. The settings on record: percentage cellular melanin vs control; 72 h of active treatment; OD at 405 nm; active concentrations (wt %) as given per example. Type of assay: cell-based. As to the method:
Various samples containing actives were prepared and the % cellular melanin content was measured. The protocol for measuring the cellular melanin is summarized below:
Neonatal primary human epidermal melanocytes were sourced from Life Technologies. Melanocytes were maintained in Medium 254 supplemented with human melanocyte growth supplement (MGM). HaCaT keratinocytes were maintained in DMEM medium containing 10% heat inactivated FBS. All media were also supplemented with 10 U/mL penicillin G and 0.1 mg/mL streptomycin sulphate. Both cell types were maintained at 37° C. in a humidified incubator with 5% CO2 atmosphere. Maintenance and sub-culturing of cells were carried out as per the manufacturer's instructions.
For setup of co-cultures, 40,000 cells each of HaCaT keratinocytes and melanocytes were mixed in 1 mL of a 1:1 mix of MGM:KGM (KGM: Epilife medium supplemented with human keratinocyte growth supplement) and seeded as such per well, in 12 well Nunc plates.
Actives were prepared in media and test concentrations were added to cells along with relevant controls 24 h post seeding. After 72 h of active treatment, cell viability (using calcein method) and measurement of cellular melanin content was determined as described below.
After calcein fluorescence readings were obtained, cells were drained and fresh 0.15 mL of 1N NaOH (in 10% DMSO) per well was added. Cells were lysed by resuspension and incubation (60° C. for 1 h). Then, 0.1 mL of this lysate was transferred to a fresh 384-well plate and OD was measured at 405 nm in a TECAN M1000 plate reader. Melanin content was calculated as percentage cellular melanin vs control.
Turning to Inulin [Example C], the “% cellular melanin” value is 96%.

Regarding `CCCCCCc1ccc(O)cc1O` [Example E, 4-hexyl resorcinol, reference compound], the “% cellular melanin” value is listed as 69* %.

Consider Inulin [B], for which the “% cellular melanin” value turned out to be 86%.

(Values after patent publication US20250186329A1, “A SKIN BRIGHTENING COMPOSITION” (Conopco, Inc., d/b/a UNILEVER, priority 2022, published 2025).)
